Assay results: article PMC6222329 (Molecules : A Journal of Synthetic Chemistry and Natural …, 2018)

How the values were obtained:
Type in all cases: biochemical
[1] = target: T1, AChE (Electrophorus electricus) (Electrophorus electricus, UniProt O42275); experiment: AChE inhibition, Ellman's method
T1 construct: purchased Sigma-Aldrich (Steinheim, Germany)
Protocol: (§1) The assay was performed in two steps.
(§2) All enzymes were obtained from Sigma-Aldrich (Steinheim, Germany). Ellman’s reagent and the substrates were obtained from Fluka (Buchs, Switzerland). The chemicals used to prepare the buffer solution were purchased from Merck (Darmstadt, Germany).
(§3) The enzyme inhibitory activities of the synthesized compounds were investigated by applying Ellman’s method. Enzyme solutions were dissolved in gelatin solution (1%; 2.5 units/mL). […] Then, the reaction was initiated by the addition of Ellman’s reagent 5,5′-Dithiobis(2-nitrobenzoic acid) (DTNB; 20 µL/well, 10 mM) and the substrate (10 µL/well, 75 mM). […] The enzyme solution was processed as a control. All readings were adjusted with blank-reading. All assays were performed in four independent wells. […] Absorbance differences between the two readings were taken, and percentage inhibition rates were calculated according to the following formula: % Inhibition=[(A(C)−A(B))−(A(I)−A(B))]/(A(C)−A(B))×100.
(§4) • Blank (B): the well in which the inhibitor compound and substrate were not added; • Control (C): the well where the inhibitor compound was not added; • A(B): the difference in absorbance reading for the blank; • A(C): the difference in absorbance reading for the control; • A(I): the difference in absorbance reading for the inhibitor compounds.

AChE (Human) = target: T2, AChE (Human) (Homo sapiens, UniProt P22303); experiment: AChE inhibition, Ellman's method
T2 construct: purchased Sigma-Aldrich (Steinheim, Germany)
T2 sequence (P22303 32-614): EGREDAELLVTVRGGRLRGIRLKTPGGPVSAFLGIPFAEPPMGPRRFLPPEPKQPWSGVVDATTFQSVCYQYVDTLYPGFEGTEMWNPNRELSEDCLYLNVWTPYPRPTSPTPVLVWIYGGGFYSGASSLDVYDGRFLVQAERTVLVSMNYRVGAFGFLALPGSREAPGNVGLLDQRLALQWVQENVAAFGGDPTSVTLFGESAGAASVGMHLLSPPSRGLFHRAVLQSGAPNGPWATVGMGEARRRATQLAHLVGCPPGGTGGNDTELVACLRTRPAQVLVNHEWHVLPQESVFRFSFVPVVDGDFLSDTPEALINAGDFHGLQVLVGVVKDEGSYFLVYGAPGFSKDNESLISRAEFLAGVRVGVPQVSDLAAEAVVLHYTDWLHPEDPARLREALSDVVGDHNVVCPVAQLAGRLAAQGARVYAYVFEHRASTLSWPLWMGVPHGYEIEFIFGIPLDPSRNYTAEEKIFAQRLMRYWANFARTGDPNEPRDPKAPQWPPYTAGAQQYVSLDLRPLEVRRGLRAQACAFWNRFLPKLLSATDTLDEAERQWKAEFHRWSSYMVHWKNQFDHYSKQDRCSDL
Protocol: as §1, §2, §3, §4

BChE (Equine) = target: T3, BChE (Equine) (Equus caballus, UniProt P81908); experiment: biochemical
T3 construct: purchased Sigma-Aldrich (Steinheim, Germany)
T3 sequence (P81908 whole entry): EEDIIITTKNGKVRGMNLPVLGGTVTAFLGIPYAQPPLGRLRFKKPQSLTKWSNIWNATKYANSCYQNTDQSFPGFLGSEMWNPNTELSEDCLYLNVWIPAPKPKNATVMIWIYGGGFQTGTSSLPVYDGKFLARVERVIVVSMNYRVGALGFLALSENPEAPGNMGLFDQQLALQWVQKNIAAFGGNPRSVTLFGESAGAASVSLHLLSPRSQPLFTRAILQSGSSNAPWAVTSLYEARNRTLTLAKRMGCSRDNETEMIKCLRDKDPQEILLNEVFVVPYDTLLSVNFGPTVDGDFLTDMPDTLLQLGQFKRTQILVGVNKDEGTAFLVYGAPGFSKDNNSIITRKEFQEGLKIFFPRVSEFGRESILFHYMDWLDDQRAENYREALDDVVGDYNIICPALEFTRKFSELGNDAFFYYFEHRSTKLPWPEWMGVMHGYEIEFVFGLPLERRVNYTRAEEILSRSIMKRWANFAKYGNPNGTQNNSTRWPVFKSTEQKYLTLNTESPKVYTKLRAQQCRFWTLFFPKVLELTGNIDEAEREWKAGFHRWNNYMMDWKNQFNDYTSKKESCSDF
Protocol: as §1, §2, §3, §4

BChE (Human) = target: T4, BChE (Human) (Homo sapiens, UniProt P06276); experiment: BChE inhibition, Ellman's method
T4 construct: purchased Sigma-Aldrich (Steinheim, Germany)
T4 sequence (P06276 29-602): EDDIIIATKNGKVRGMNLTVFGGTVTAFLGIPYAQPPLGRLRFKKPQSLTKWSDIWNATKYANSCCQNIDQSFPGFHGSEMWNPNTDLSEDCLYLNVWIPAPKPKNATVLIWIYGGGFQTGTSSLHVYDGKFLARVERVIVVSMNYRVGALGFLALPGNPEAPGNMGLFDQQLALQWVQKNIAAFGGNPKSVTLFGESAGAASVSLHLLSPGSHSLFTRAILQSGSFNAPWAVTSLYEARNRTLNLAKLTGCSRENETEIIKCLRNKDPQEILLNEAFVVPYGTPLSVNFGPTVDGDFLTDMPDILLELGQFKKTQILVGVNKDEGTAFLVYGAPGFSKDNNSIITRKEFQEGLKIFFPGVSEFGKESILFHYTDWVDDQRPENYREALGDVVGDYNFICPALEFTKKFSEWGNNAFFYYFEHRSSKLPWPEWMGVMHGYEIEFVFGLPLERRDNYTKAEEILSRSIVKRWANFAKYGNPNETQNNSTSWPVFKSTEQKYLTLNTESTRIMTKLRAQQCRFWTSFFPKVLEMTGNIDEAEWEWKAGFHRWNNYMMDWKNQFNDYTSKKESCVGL
Protocol: as §1, §2, §3, §4

[2] = read-out: BChE (Equine) inhibitory activity (%) ± SD

T1 sequence (O42275 24-633): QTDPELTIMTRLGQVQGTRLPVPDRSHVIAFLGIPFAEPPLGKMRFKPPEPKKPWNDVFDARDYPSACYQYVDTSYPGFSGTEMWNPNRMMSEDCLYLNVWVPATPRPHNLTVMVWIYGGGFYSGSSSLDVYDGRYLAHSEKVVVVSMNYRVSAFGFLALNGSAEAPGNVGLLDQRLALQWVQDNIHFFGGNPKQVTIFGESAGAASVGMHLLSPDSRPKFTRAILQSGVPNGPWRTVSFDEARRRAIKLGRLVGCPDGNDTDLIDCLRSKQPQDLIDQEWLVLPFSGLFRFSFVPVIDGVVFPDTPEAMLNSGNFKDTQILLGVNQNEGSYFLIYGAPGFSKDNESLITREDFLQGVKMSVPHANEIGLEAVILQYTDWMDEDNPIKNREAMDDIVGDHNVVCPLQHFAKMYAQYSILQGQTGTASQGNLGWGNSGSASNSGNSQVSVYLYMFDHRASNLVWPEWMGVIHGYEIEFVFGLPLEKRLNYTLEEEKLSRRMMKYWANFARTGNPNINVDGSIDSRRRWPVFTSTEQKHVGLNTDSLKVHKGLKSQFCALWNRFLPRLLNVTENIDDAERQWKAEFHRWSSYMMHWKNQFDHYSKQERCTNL

SMILES | AChE (Electrophorus electricus) inhibitory activity (%) ± SD ([1]; 10^-3 M) [%] | AChE (Electrophorus electricus) inhibitory activity (%) ± SD ([1]; 10^-4 M) [%] | AChE (Human) inhibitory activity (%) ± SD (AChE (Human); 10^-3 M) [%] | AChE (Human) inhibitory activity (%) ± SD (AChE (Human); 10^-4 M) [%] | BChE (Equine) inhibitory activity (%) ± SD (BChE (Equine); 10^-3 M) [%] | BChE (Equine) inhibitory activity (%) ± SD (BChE (Equine); 10^-4 M) [%] | BChE (Human) inhibitory activity (%) ± SD (BChE (Human); 10^-3 M) [%] | BChE (Human) inhibitory activity (%) ± SD (BChE (Human); 10^-4 M) [%] | inhibition at 0.001 µM (BChE (Equine); [2]) [%] | inhibition at 0.01 µM (BChE (Equine); [2]) [%] | inhibition at 0.1 µM (BChE (Equine); [2]) [%] | inhibition at 1 µM (BChE (Equine); [2]) [%] | inhibition at 10 µM (BChE (Equine); [2]) [%] | inhibition at 100 µM (BChE (Equine); [2]) [%] | inhibition at 1000 µM (BChE (Equine); [2]) [%] | inhibition at 1000 µM (BChE (Human); 10^-3 M, read-out: BChE (Human) inhibitory activity (%) ± SD) [%] | inhibition at 100 µM (BChE (Human); 10^-4 M, read-out: BChE (Human) inhibitory activity (%) ± SD) [%] | inhibition at 10 µM (BChE (Human); 10^-5 M, read-out: BChE (Human) inhibitory activity (%) ± SD) [%] | inhibition at 1 µM (BChE (Human); 10^-6 M, read-out: BChE (Human) inhibitory activity (%) ± SD) [%] | inhibition at 0.1 µM (BChE (Human); 10^-7 M, read-out: BChE (Human) inhibitory activity (%) ± SD) [%]
O=C(CSC(=S)N1CCN(c2ncccn2)CC1)Nc1c2ccccc2nc2ccccc12 [Compound 4j, 2-(9-Acridinylamino)-2-oxoethyl 4-(pyrimidin-2-yl)piperazine-1-carbodithioate] | 69.08±1.67 | 2.88 ± 0.18 | 66.71±1.06 | 5.97 ± 0.22 | 92.87±2.84 | 27.86 ± 1.07 | 90.51±2.18 | 30.77 ± 1.20 |  |  |  |  |  |  |  |  |  |  |  | 
O=C(CSC(=S)N1CCN(Cc2ccccc2)CC1)Nc1c2ccccc2nc2ccccc12 [Compound 4k, 2-(9-Acridinylamino)-2-oxoethyl 4-benzylpiperazine-1-carbodithioate] | 58.74±1.69 | 8.62 ± 0.22 | 59.17±1.11 | 7.21 ± 0.18 | 74.62±2.75 | 25.14 ± 1.42 | 70.98±2.39 | 20.65 ± 1.20 |  |  |  |  |  |  |  |  |  |  |  | 
O=C(CSC(=S)N1CCN(C2CCCCC2)CC1)Nc1c2ccccc2nc2ccccc12 [Compound 4l, 2-(9-Acridin-ylamino)-2-oxoethyl 4-cyclohexylpiperazine-1-carbodithioate] | 56.11±2.46 | 3.90 ± 0.09 | 58.33±1.39 | 7.29 ± 0.18 | 84.88±3.34 | 45.88 ± 1.62 | 85.71±2.40 | 42.60 ± 1.53 |  |  |  |  |  |  |  |  |  |  |  | 
O=C(CSC(=S)N1CCN(c2ccc(F)cc2)CC1)Nc1c2ccccc2nc2ccccc12 [Compound 4p, 2-(9-Acridinylamino)-2-oxoethyl 4-(4-fluorophenyl)piperazine-1-carbodithioate] | 98.66±2.98 | 48.40 ± 1.18 | 96.90±2.17 | 49.51 ± 1.50 | 93.27±3.07 | 48.65 ± 1.14 | 92.55±2.51 | 40.71 ± 1.08 |  |  |  |  |  |  |  |  |  |  |  | 
O=C(CSC(=S)N1CCN(C(=O)c2ccco2)CC1)Nc1c2ccccc2nc2ccccc12 [Compound 4q, 2-(9-Acridinylamino)-2-oxoethyl 4-(furan-2-carbonyl)piperazine-1-carbodithioate] | 68.60±1.57 | 16.35 ± 0.39 | 70.29±1.18 | 20.28 ± 0.51 | 92.00±3.44 | 39.90 ± 1.36 | 95.29±2.16 | 42.48 ± 1.22 |  |  |  |  |  |  |  |  |  |  |  | 
COc1cc2c(cc1OC)C(=O)C(CC1CCN(Cc3ccccc3)CC1)C2 (stereo not shown) [Donepezil, reference compound] |  |  |  |  |  |  |  |  | 9.23 ± 0.08 | 15.3 ± 0.61 | 38.1 ± 0.89 | 54.3 ± 1.16 | 59.2 ± 1.54 | 71.7 ± 2.16 | 82.2 ± 2.91 | 85.2 ± 2.01 | 76.5 ± 2.08 | 60.2 ± 1.37 | 52.5 ± 1.05 | 32.7 ± 0.95
